From ChEMBL document CHEMBL3507680, “University of Dundee, Gates Library screen for HepG2 cell viability” come the findings set out here.

This data set is described as follows: Human HepG2 cell viability assay in 384 well format. More on the design: dose 125 nL, time 70.5 hour; concentration not given beside the values. The format is toxicity, cell-based. Conditions: HepG2 cells, read-out: Inhibition.
Turning to `CC(C)(C)NC(=O)COc1ccc(Oc2ccccn2)cc1`, the cytotoxicity at 70.5 h was -6.32%.
As to `Cc1ccc(CN2C[C@@H]3C[C@H](C(=O)NCC4CC4)N(C)[C@@H]3C2)o1`, the cytotoxicity at 70.5 h stood at 10.1%.
With `COCCN1CCC2(CC1)CC(CC(N)=O)c1ccc(F)cc12` (centres undefined), the cytotoxicity at 70.5 h was 1.63%.
The result for `CN1C(=O)CO[C@H](c2ccc(NC(=O)Cc3cccs3)cc2)[C@H]1CO` reads -6.23%; that for `CC(C)C(C(=O)N1CCN(c2nccs2)CC1)n1cncn1` (centres undefined), 0.606%; that for `CC(C#N)CSc1ccccc1NCC(=O)Nc1ccccc1` (centres undefined), 14.3%.
Take `Cc1nnc(C(C)N2CCN(Cc3ccc(C#N)cc3)CC2)o1` (centres undefined): the cytotoxicity at 70.5 h was -6.02%.
The result for `Cc1ncc2c(n1)CN(CCCc1nc3ccccc3o1)CC2` reads -0.537%; that for `CN1CCN(C[C@H]2CC[C@@H](Cc3ccc(CN4CCCC4)cc3)O2)CC1`, -6.45%; that for `CC(C)NC(=O)N1CCC2(C1)CN(c1ccsc1)C(=O)CN2C` (centres undefined), -9.03%.
Turning to `COCC1CN(C(=O)Cc2ccsc2)Cc2c1cnn2C` (centres undefined), the cytotoxicity at 70.5 h turned out to be 25.8%.
As for `CS(=O)(=O)N1CCN(C(=O)CN2CCCc3c(F)cc(F)cc32)CC1`, the cytotoxicity at 70.5 h was -3.95%.
The result for `CC(C)N(C(=O)Cn1c(-c2ccco2)cc2cccnc21)C(C)C` reads -15.1%; that for `O=C(CCCn1cncn1)NC1(c2ccccc2)CCC1`, -4.44%.
As for `Cc1noc(CCCC(=O)N(CC2CCOC2)C2CC2)n1` (centres undefined), the cytotoxicity at 70.5 h was -11%.
The same measure for `C[C@@H]1CN(C(=O)C2CCOCC2)C[C@]12CCN(c1cccnc1)C2=O`: -6.64%; for `COCC(=O)N1CCN(C(=O)C2CCCCC2)[C@@H](C(=O)OC)C1`: 1.64%.
Consider `Cc1c(NCc2ccccc2C#N)cccc1-n1cnnn1`, for which the cytotoxicity at 70.5 h was -3.47%.
`Fc1ccc(Sc2ccccc2CNC2=NCCN2)cc1`: the cytotoxicity at 70.5 h was -5.29%.
In the case of `CC(=O)N[C@@H]1CN(C(=O)c2ccc[nH]2)C[C@H]1c1ccc(C)o1`, the cytotoxicity at 70.5 h came out at 0.0626%.
Regarding `COc1ccc(C(C(=O)O)N2CCCN(C3CCCCC3)CC2)cn1` (centres undefined), the cytotoxicity at 70.5 h is -10.2%.
Regarding `CCOC(=O)c1n[nH]cc1CN1CCOC(Cc2ccc(OC)cc2)C1` (centres undefined), the cytotoxicity at 70.5 h is -3.26%.
Turning to `Cc1cccc(C)c1OC1CCN(Cc2ccn(C)c(=O)c2)CC1`, the cytotoxicity at 70.5 h was -5.76%.
Consider `CCOC(=O)[C@]12CCCN(Cc3nccs3)C[C@H]1CN(CC(C)C)C2`, for which the cytotoxicity at 70.5 h is -3.1%.
`CCO[C@@H]1CCN(C(=O)c2cscn2)[C@@H]1Cc1cnn(C)c1`: the cytotoxicity at 70.5 h was -10.2%.
The same measure for `CCOC(=O)C1CCN(CCCc2nnnn2-c2ccccc2)CC1`: -3.5%; for `CC(=O)N1CCCC(c2ccc(N3CCOCC3)cn2)C1` (centres undefined): -5.65%; for `CN(CCN1CCCC1=O)S(=O)(=O)CC1CCCC1`: -4.62%.
Take `O=C1CC2(CCN(C(=O)c3ccccn3)CC2)Oc2c(Cl)cc(Cl)cc21`: the cytotoxicity at 70.5 h was -6.72%.
Consider `O=C1C[C@H]2CC[C@@H](CN1)N2C1CSCCSC1`, for which the cytotoxicity at 70.5 h was 17.4%.
In the case of `Brc1cnc(NCCCOCC2CCOCC2)nc1`, the cytotoxicity at 70.5 h was -5.42%.
With `CC(C)CCC(=O)NCCc1ccn(-c2ccccc2)n1`, the cytotoxicity at 70.5 h is -5.88%.
`CCOc1ccc(S(=O)(=O)NC(=O)c2c(C)noc2C(C)C)cc1`: the cytotoxicity at 70.5 h was 1.8%.
The same measure for `Cc1cccc(C2(C(=O)NCC3CN(C)CCO3)CC2)c1` (centres undefined): 2.72%.
`COc1cc(C2CC(=O)Oc3cc(C)[nH]c(=O)c32)ccc1OC(F)F` (centres undefined): the cytotoxicity at 70.5 h is 10.5%.
Consider `O=C(NCCN1CCOCC1)c1cc(COc2ccccc2F)[nH]n1`, for which the cytotoxicity at 70.5 h came out at 0.766%.
The result for `OC(CNCCn1cccn1)c1ccc(C(F)(F)F)cc1` (centres undefined) reads -4.94%.
As for `CCn1ncc2c1CCCC2NCc1ccc(OC)cc1OC` (centres undefined), the cytotoxicity at 70.5 h was -4.5%.
Consider `O=S(=O)(c1cccs1)N1CCCC(c2nccs2)C1` (centres undefined), for which the cytotoxicity at 70.5 h was -3.29%.
Take `O=C(c1ccccn1)C1CCCN(c2nccc(CCC(F)(F)F)n2)C1` (centres undefined): the cytotoxicity at 70.5 h is -13.1%.
For `COCC1COCCC12CCN(C(=O)CCc1ccccc1C)CC2` (centres undefined), the cytotoxicity at 70.5 h was -5.26%.
The result for `CC(C)c1ccc(C(CN)N2CCc3sccc3C2)cc1` (centres undefined) reads -2.57%.
As to `COc1ncccc1C(=O)NC1CCOc2ccccc21` (centres undefined), the cytotoxicity at 70.5 h is -6.62%.
`NC(=O)c1cnn2c1NCC(CNCCOc1ccccc1)C2` (centres undefined): the cytotoxicity at 70.5 h was -5.14%.
Take `Cc1ccc(NC(=O)NCCc2ccncc2C)c(N(C)C)n1`: the cytotoxicity at 70.5 h was -16.2%.
Consider `Cc1nc(CCCNC(=O)c2c(F)cc(F)cc2F)n[nH]1`, for which the cytotoxicity at 70.5 h was -7.17%.
Regarding `NC(=O)N1CCC(NCc2cc(Br)ccc2Cl)CC1`, the cytotoxicity at 70.5 h is -1.95%.
The same measure for `COCCNC(=O)c1cc2c(s1)CCN2S(C)(=O)=O`: -6.66%.
Turning to `CN(C)C(=O)COCC1CN(Cc2ccsc2)Cc2nccn2C1` (centres undefined), the cytotoxicity at 70.5 h was -7.22%.
For the molecule `CCC(CC)c1cc(CNC(=O)N2CCCC(c3ncc[nH]3)C2)on1` (centres undefined), the cytotoxicity at 70.5 h turned out to be 0.2%.
As for `CNc1nc(C)c(-c2nc(-c3c(C)ncc4c3CCNC4)no2)s1`, the cytotoxicity at 70.5 h was -16.8%.
Take `C[C@@H]1C[C@H]2CN(C(=O)c3ccncn3)C[C@H]2O1`: the cytotoxicity at 70.5 h is -14.1%.
For `Cc1cccc(CN2C[C@@H]3CN(C(=O)c4ccnnc4)C[C@@H]3C2=O)c1`, the cytotoxicity at 70.5 h was -2.38%.
As for `Cn1cc(CN2CCCN(C(=O)c3sccc3C#N)CC2)cn1`, the cytotoxicity at 70.5 h is -2.13%.
The result for `Cc1nc(CN(C)c2cc(N3CCCC3CO)ncn2)cs1` (centres undefined) reads -3.26%; that for `CC(=O)N(Cc1c(F)cccc1F)C1CCCC1`, -6.67%; that for `CC(C)c1nnc2n1CCN(C(=O)COc1ccc(C(N)=O)cc1)C2`, -6.98%.
The result for `Cc1cc(C(=O)N2CCC(Nc3cccnn3)CC2)no1` reads 11.5%.
In the case of `CN(C)C(C(=O)NCC1(N(C)C)CCOCC1)c1ccccc1F` (centres undefined), the cytotoxicity at 70.5 h is -7.91%.
The result for `CC(=O)Nc1ccc(CNC2COc3c2ccc(C)c3C)cc1` (centres undefined) reads 15.7%.
For the molecule `COc1ncc(CN2CC[C@@](C)(O)[C@H](Oc3cccc(F)c3)C2)cn1`, the cytotoxicity at 70.5 h turned out to be 5.46%.
As to `CC(Cn1cccn1)n1cnc2cccc(F)c2c1=O` (centres undefined), the cytotoxicity at 70.5 h was -7.35%.
Consider `O=C(NCc1cccnc1-n1cncn1)C1CC2(CCNCC2)CN1` (centres undefined), for which the cytotoxicity at 70.5 h is -4.56%.
`COC(=O)c1sc2cccc(F)c2c1CNC(=O)C1CC1`: the cytotoxicity at 70.5 h amounted to 1.14%.
The same measure for `Cc1cc(NC(=O)CNC2CCc3ncnn3C2)on1` (centres undefined): 9.31%; for `CNc1nc(C2CCCN(C(=O)C3CCCCC3)C2)nc2c1CNCC2` (centres undefined): -3.63%; for `Nc1c(N2CCOCC2)ncnc1N1CCOCC1`: 0.518%.
Take `Cc1nc(NC(=O)C2CCCN(C(N)=O)C2)sc1-c1ccccc1` (centres undefined): the cytotoxicity at 70.5 h came to 28.7%.
With `Cc1cc(F)ccc1OC1(C(=O)O)CCN(Cc2ccncc2)CC1`, the cytotoxicity at 70.5 h is -8.64%.
The result for `Cn1nc2c(cc1=O)CN(Cc1nc(-c3ccccn3)no1)CC2` reads -9%.
The result for `CC(NC(=O)CSCC#N)c1ccc(F)cc1` (centres undefined) reads 10.1%.
Turning to `O=C1CC2(CCSC2)C(=O)N1Cc1coc(-c2cccc(F)c2)n1` (centres undefined), the cytotoxicity at 70.5 h is -2.41%.
Turning to `Cc1ccc(CN2CCc3onc(COc4cccnc4)c3C2)s1`, the cytotoxicity at 70.5 h is -26.9%.
As to `NC(=O)CN1CCC(C(=O)NCc2nc(-c3ccc(F)cc3)cs2)CC1`, the cytotoxicity at 70.5 h is -0.391%.
In the case of `O=C(COCC(F)(F)C(F)F)N1CCC(c2ncc[nH]2)CC1`, the cytotoxicity at 70.5 h is -5.35%.
With `C[C@@H]1CN(Cc2ccc(-c3ccncc3)cc2F)CC(C(N)=O)O1` (some centres undefined), the cytotoxicity at 70.5 h was -0.906%.
In the case of `Cn1cc(-c2cnc(N3CCOCC3)nc2)cc1C(=O)N1CCOCC1`, the cytotoxicity at 70.5 h was -22%.
The same measure for `COc1ncccc1-c1nc(-c2ccccn2)nn1C1CCS(=O)(=O)C1` (centres undefined): -7.2%; for `Nc1nccnc1C1CN(C(=O)c2ccc3c(c2)OCO3)CCO1` (centres undefined): -13.9%; for `COCC(=O)N1CCc2nc(-c3cnccn3)nc(O)c2C1`: -8.12%.
Consider `CCOc1nc2cnccc2n(CC(=O)NCc2ccco2)c1=O`, for which the cytotoxicity at 70.5 h is -10.1%.
Regarding `O=C(NC[C@]12COC[C@H]1CN(Cc1ccco1)C2)c1ccccc1`, the cytotoxicity at 70.5 h was -14.6%.
The same measure for `CCc1nc2c(s1)C(N(C)C(=O)c1csnn1)CCC2` (centres undefined): -5.63%; for `COc1ccc(CN[C@@H]2CO[C@H](CNC(=O)NC(C)C)[C@H]2O)cc1`: -5.02%.
Take `CCCC(NC(=O)c1cc(C2CC2)[nH]n1)c1nnc2ccccn12` (centres undefined): the cytotoxicity at 70.5 h is -12.1%.
The same measure for `CN1C(=O)C[C@@H]2[C@@H]1CCN2C(=O)c1ccc[nH]1`: -2.89%.
With `O=C(NC1CCCC1)C1Cc2nc(-c3ccsc3)sc2N1CC1CC1` (centres undefined), the cytotoxicity at 70.5 h worked out at 9.52%.
In the case of `O=C(c1ccc(F)c(F)c1)N1CCC(Cn2cc(CO)nn2)CC1`, the cytotoxicity at 70.5 h is -3.06%.
Take `Cc1ccc(CN2CC[C@H]3OCC[C@@]3(C(=O)N3CCCO3)C2)o1`: the cytotoxicity at 70.5 h was found to be 2.99%.
As for `CN(Cc1n[nH]c2c1CCCC2)c1nc(C2CC2)nc2c1CCNCC2`, the cytotoxicity at 70.5 h was -1.06%.
The same measure for `CCN(CC)CCCN1CCC(NC(=O)OC(C)(C)C)CC1`: -4.36%; for `O=C(Cc1ccsc1)N1CCCC(c2n[nH]c3nccnc23)C1` (centres undefined): 18.6%; for `Cc1nsc(N2CCCN(C(=O)NCc3cccnc3)CC2)n1`: -0.506%.
Take `COc1ccc(CNCC2CN(C3CC3)CCO2)cc1C` (centres undefined): the cytotoxicity at 70.5 h is -4.72%.
As to `CC(C(=O)O)N1CC2(CCC1=O)CCN(CCSc1ccccc1)CC2` (centres undefined), the cytotoxicity at 70.5 h is -13.8%.
Turning to `Cc1cccc(CN(Cc2ccccn2)S(=O)(=O)N(C)C(C)C)c1`, the cytotoxicity at 70.5 h is -14%.
Turning to `O=C(CCc1ccncc1)Nc1ccc(OCC2CCOCC2)cc1`, the cytotoxicity at 70.5 h was -13.6%.
The same measure for `COc1ccc(F)c(-c2ccnc(N)c2)c1`: -14.3%; for `Cc1cc(CN2CCN(C(=O)CCc3cccs3)CC2)on1`: -18.8%.
